Structures can show the parent of a compound that is named as a salt.
What was measured:
[1] = molecular target: T1, [3H]ifenprodil binding, adult rat forebrain membranes (NMDA receptor) (Rattus norvegicus, UniProt P35439+Q00960); assay: [3H]Ifenprodil binding assay; details: 4 nM [3H]-ifenprodil, 2 hours at room temperature, pH 7.4
T1 construct: membrane fraction was prepared from frozen adult rat forebrains; tissue Zivic-Miller Laboratories, Inc; host or cells: adult rat forebrain, buffy coat membrane fraction
T1 sequence (Q00960 27-1482, other chains not shown): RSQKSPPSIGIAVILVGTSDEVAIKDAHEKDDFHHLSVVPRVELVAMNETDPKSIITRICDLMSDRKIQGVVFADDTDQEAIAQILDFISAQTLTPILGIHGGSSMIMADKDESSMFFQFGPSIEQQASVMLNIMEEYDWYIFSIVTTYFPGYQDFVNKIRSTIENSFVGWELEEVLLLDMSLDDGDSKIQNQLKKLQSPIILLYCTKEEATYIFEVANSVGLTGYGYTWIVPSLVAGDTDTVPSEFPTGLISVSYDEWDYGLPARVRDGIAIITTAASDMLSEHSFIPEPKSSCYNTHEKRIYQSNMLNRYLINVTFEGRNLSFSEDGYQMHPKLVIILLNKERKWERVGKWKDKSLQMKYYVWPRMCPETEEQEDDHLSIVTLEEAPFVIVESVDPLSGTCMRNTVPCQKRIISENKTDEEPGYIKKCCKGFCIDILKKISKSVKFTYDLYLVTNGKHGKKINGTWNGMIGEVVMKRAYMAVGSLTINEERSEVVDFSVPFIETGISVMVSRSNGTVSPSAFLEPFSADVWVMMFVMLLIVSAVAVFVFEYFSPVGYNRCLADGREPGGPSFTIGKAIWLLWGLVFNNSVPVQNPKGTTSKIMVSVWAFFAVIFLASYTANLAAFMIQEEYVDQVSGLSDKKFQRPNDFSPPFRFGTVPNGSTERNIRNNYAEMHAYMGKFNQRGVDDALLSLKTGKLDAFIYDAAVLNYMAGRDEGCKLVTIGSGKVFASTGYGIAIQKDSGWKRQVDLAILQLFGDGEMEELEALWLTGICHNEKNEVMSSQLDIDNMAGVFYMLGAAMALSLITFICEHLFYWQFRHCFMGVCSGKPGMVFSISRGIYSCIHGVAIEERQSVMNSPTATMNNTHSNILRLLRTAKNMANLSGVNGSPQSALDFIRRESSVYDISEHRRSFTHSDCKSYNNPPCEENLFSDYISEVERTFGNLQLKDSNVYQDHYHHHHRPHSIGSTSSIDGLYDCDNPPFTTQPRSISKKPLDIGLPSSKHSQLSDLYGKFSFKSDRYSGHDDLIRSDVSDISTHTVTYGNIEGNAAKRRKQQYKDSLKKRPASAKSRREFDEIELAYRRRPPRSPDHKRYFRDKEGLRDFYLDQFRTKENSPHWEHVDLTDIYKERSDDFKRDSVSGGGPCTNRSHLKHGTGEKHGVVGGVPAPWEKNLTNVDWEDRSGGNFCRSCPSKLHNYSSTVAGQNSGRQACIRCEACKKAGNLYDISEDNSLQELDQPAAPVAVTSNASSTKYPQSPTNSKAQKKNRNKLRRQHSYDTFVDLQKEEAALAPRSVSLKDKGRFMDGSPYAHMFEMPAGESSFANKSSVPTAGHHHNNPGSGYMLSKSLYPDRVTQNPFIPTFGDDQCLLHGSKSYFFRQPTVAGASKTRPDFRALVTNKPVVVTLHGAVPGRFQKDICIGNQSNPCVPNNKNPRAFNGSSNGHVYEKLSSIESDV
Experimental: All buffers and reagents used in assay incubations or to dissolve drugs were prepared using water purified through a Milli-Q reverse osmosis system (Millipore Corp, Bedford, Mass.) and treated with UV emissions. Prior to use in the assays, buffers were further filtered through a sterile Corning filtration unit (Corning Glass Works, Corning, N.Y.) containing a 0.2-μm filter. Buffer used to rinse the membranes on the assay filters was prepared with purified water, but was not refiltered and was stored no longer than 5 days. Stock solutions of the drugs (usually 10 mM) were dissolved in 20 mM HEPES-KOH buffer pH 7.4 (assay buffer) with the addition of 1 to 5 μL of glacial AcOH, if needed, to keep them in solution. For eliprodil the stock solution was buffer with the addition of 10% DMSO. All subsequent dilutions from stock were made in buffer.
An extensively washed buffy coat membrane fraction was prepared from frozen adult rat forebrains (Zivic-Miller Laboratories, Inc, Zelienople, Pa.) as described previously (Coughenour L. L.; Cordon, J. J., J. Pharmacol. Exp. Ther., 1997;280:584-592) and stored at −80° C. On the day of the assay, pellets were resuspended in 35 mL of assay buffer at pH 7.4 using a Polytron setting 6. After incubation at 37° C. for 30 minutes in a shaking water bath, the homogenate was centrifuged 40,000×g for 10 minutes at 4° C. The pellets were resuspended in fresh buffer and centrifuged 3 more times before final suspension for use in the assay.
[^3H]Ifenprodil Binding. […] The filter mat was supported on a cold (−20° C.) teflon support, and filters from individual wells were separated and placed in Mini Poly-Q vials (Beckman Instruments Inc, Fullerton, Calif.) and filled with 4 mL of scintillation cocktail (Beckman Ready Protein^+). Radioactivity retained on the filter was determined by liquid scintillation spectrophotometry. […]
Data Analysis. Binding curves were statistically analyzed for a best one- or two-site competition fit using GraphPad Prism software (GraphPad Software Inc, San Diego, Calif.). […]

NR1A/NR2B = molecular target: T2, NR1A/NR2B (Rattus norvegicus, UniProt P35439+Q00960); assay: Electrophysiological assay at NMDA receptor subunits expressed in Xenopus oocytes (two-electrode voltage clamp); assay type: cell-based; details: cloned rat NR1A/NR2B in Xenopus oocytes; currents activated by glutamate (100 μM) and glycine (1-100 μM); read-out: NR1A/NR2B Oocyte IC50
T2 construct: expressed in transfected cells; host or cells: Xenopus laevis oocytes injected with cRNA
T2 sequence (Q00960 27-1482, other chains not shown): as above
Description: Preparation of RNA. cDNA clones encoding the NR1A, NR2A, NR2B, and NR2C rat NMDA receptor subtypes were used. (See Moriyoshi et al., Nature, (Lond.), 1991;354:31-37); Kutsuwada et al., Nature (Lond.), 1992;358:36-41; Monyer et al., Science (Washington, D.C.), 1992;256:1217-1221; Ikeda et al., FEBS Lett., 1992;313:34-38; Ishii et al., J. Biol. Chem., 1993;268:2836-2843 for details of these clones or their mouse homologs.) The clones were transformed into appropriate host bacteria, and plasmid preparations were made with conventional DNA purification techniques. A sample of each clone was linearized by restriction enzyme digestion […] was synthesized with T3 RNA polymerase. The cRNA was diluted to 400 ng/μL and stored in 1-μL aliquots at −80° C. until injection.
The Xenopus Oocyte Expression System. […]
Electrical recordings were made using a conventional two-electrode voltage clamp (Dagan TEV-200) over periods ranging between 3 to 21 days following injection (Woodward et al., Mol. Pharmacol., 1992;41:89-103). […] Inhibitory potency of the novel antagonists was assessed on responses elicited by fixed concentrations of glutamate and glycine, by measuring reductions in current induced by progressively increasing concentrations of antagonist. […]

melting point | Compound | IC50 [1] | IC50 (NR1A/NR2B)
238 to 241 °C | Oc1ccc(CCN[C@H]2CC[C@H](c3ccccc3)CC2)cc1 (as salt: HCl) [Example 5, trans-4-[2-(4-Phenylcyclohexylamino)ethyl]phenol] | – | –
– | C[C@H](N[C@H]1CC[C@H](c2ccccc2)CC1)[C@@H](O)c1ccc(O)cc1 [Example 2a, trans 4-[(1S,2S)-1-Hydroxy-2-(4-phenylcyclohexylamino)propyl]phenol] | 1300 nM | –
211 to 214 °C | Oc1ccc(CCCN[C@H]2CC[C@H](c3ccccc3)CC2)cc1 [Example 1b, trans4-[3-(4-Phenylcyclohexylamino)propyl]phenol] | 84 nM | –
249 to 255 °C | CN(CCCc1ccc(O)cc1)[C@H]1CC[C@H](c2ccccc2)CC1 (as salt: HCl) [Example 4, trans-4-{3-[Methyl-(4-phenylcyclohexyl)amino]propyl}phenol] | – | –
97 to 105 °C | CN(CCc1ccc(O)cc1)[C@H]1CC[C@H](c2ccccc2)CC1 (as salt: HCl) [Example 6, trans 4-{2-[Methyl(4-phenylcyclohexyl)amino]ethyl}phenol] | – | –
– | C[C@H](N[C@H]1CC[C@@H](c2ccccc2)CC1)[C@@H](O)c1ccc(O)cc1 [Example 2b, cis-4-[(1S,2S)-1-Hydroxy-2-(4-phenylcyclohexylamino)propyl]phenol] | 45 nM | 150 nM

Reference: patent US6765022B2, “Cyclohexylamine derivatives as subtype selective nmda receptor antagonists” (Warner-Lambert Company, priority 2000, dated 2004)
